From patent US5175100A, “Stereospecific resolution by hydrolysis of esters of 2-arylpropionic acids by liver enzymes” (Rhone-Poulenc, Inc., priority 1991, dated 1992)

Assays:
Assay type in all cases: biochemical
[1] = test system: Liver acetone powder from Dog; test: Hydrolysis of ketoprofen esters by dog liver acetone powder; conditions: Dog powder, 0.2 millimole ester, procedure of Example 1
Procedure: (§1) A solution of 50 mg of ketoprofen methyl ester in 0.2 ml of ethanol was added to 10 mg of each of liver acetone powder from various animal sources (described in Table 1) in 5 ml of 0.1M potassium phosphate buffer (pH 7.0) After shaking at room temperature for 24 hours, the reaction mixtures were acidified to pH 2.0 with 6(N) HCl and extracted with 10 ml of ethyl acetate. A portion of the ethyl acetate extract was analyzed by HPLC on a Partisil 5 ODS-3 RAC column (9.4 mm×100 mm, Whatman) using a mixture of methanol and 10 mM ammonium dihydrogen phospate (9:1) and monitored by UV at 254 nm to determine the percentages of acid produced in the reaction.
(§2) To determine the percentage of R- and S-acid, a portion of the ethyl acetate extract was converted to the amide derivative of the acid produced with R(+)-1-phenylethylamine as follows. The ethyl acetate extract (5 ml) was dried over sodium sulfate, filtered and cooled to 0° C. To the cold solution was added 0.2 ml of N-methylmorpholine followed by 0.2 ml of isobutyl chloroformate. After gentle shaking at 0° C. for 10 minutes, 0.2 ml of R(+)-1-phenylethylamine was added and the shaking was continued at 0° C. for 5 minutes and at room temperature for another 5 minutes. The reaction mixture was washed successively with water (5 ml), 1(N) HCl (5 ml), and water (5 ml) to provide the amide derivative in ethyl acetate solution. The ethyl acetate solution of the amide derivative was then analyzed by HPLC on the same column and same solvent mixture but with a different composition, i.e., a ratio of 6:4, and monitored by UV to determine the percentages of R- acid and S-acids produced by hydrolysis. The enantiomeric excess (EE) is defined as the difference in percent between the percent R- acid and the percent S-acid, the higher enantiomer being reported in the parenthesis in Table I.
(§3) Several esters of ketoprofen (0.2 millimole) with various alkyl groups of varying chain length were hydrolyzed using liver acetone powders from bovine, calf and dog by the procedure described in Example 1. The reaction mixtures were analyzed by the same procedures as described in Example 1 and the results obtained are summarized in Table II.

[2] = test system: Liver acetone powder from Calf; test: Hydrolysis of ketoprofen esters by calf liver acetone powder; conditions: Calf powder, 0.2 millimole ester, procedure of Example 1
Procedure: as §1, §2, §3

[3] = test system: Liver acetone powder from Bovine; test: Hydrolysis of ketoprofen esters by bovine liver acetone powder; conditions: Bovine powder, 0.2 millimole ester, procedure of Example 1
Procedure: as §1, §2, §3

| Compound | EE(%) of R-Acid [1] [%] | Percent of Acid R-Acid [1] [%] | Percent of Acid S-Acid [1] [%] | EE(%) of R-Acid [2] [%] | Percent of Acid R-Acid [2] [%] | Percent of Acid S-Acid [2] [%] | EE(%) of R-Acid [3] [%] | Percent of Acid R-Acid [3] [%] | Percent of Acid S-Acid [3] [%] |
| --- | --- | --- | --- | --- | --- | --- | --- | --- | --- |
| CCOC(=O)C(C)c1cccc(C(=O)c2ccccc2)c1 (stereo not drawn) [C-2] | 65.0 | 82.5 | 17.5 | 39.2 | 69.6 | 30.4 | 40.6 | 70.3 | 29.7 |
| CCCOC(=O)C(C)c1cccc(C(=O)c2ccccc2)c1 (stereo not drawn) [C-3] | 68.2 | 84.1 | 15.9 | 38.2 | 69.1 | 30.9 | 41.4 | 70.7 | 29.3 |
| CCCCOC(=O)C(C)c1cccc(C(=O)c2ccccc2)c1 (stereo not drawn) [C-4] | 68.8 | 84.4 | 15.6 | 38.2 | 65.6 | 34.4 | 33.4 | 66.7 | 33.3 |
